Patent EP0346760A2, “Derivatives of nigericine, methods for their preparation, compositions containing them and their use” (priority 1988, dated 1989)
Converted amounts (≈) assume the structure as drawn. Where two headings read alike, the source gives them in different places.

Tests used:
Type in all cases: cell-based
Staph. aureus (285) = test: Agar dilution test (Lorian), antibacterial activity; details: Staphylococcus aureus
Description: (§1) Die antibakterielle Wirksamkeit der erfindungsgemäßen Verbindungen wurde im Agar-Verdünnungstest nach Lorian (Antibiotics in Laboratory Medicine, Williams & Wilkins, Baltimore/London, 1980) bestimmt. Dabei wurden die Präparate in einer geometrischen Verdünnungsreihe mit dem Faktor 2 in Müller Hinton Agar verdünnt. Eine Petrischale enthielt nur Müller Hinton Agar und diente zur Kontrolle des Bakterienwachstums. Die Petrischalen wurden dann mit einem Denley-Multipoint-Inokulator, welcher 0,6 µl einer 1 : 100 verdünnten 18-Stunden-Kultur der Testbakterien übertrug, mit den entsprechenden Testbakterien beimpft. Nach 16 bis 18 Stunden Inkubation bei 37°C wurden die Petrischalen makroskopisch auf Bakterienwachstum untersucht.
(§2) Die niedrigste Konzentration der erfindungsgemäßen Verbindungen, welche das Bakterienwachstum noch vollständig verhinderte, wurde als MIC (Minimum Inhibitory Concentration) angenommen.
(§3) In Tabelle 3 ist die Wirkung (Angabe des MIC in µg/ml) von verschiedenen erfindungsgemäßen Verbindungen gegen folgende Bakterien aufgeführt: Staph. aureus (SG 511), Staph. aureus (285), Staph. aureus (503), Strept. pyogenes (308 A), Strept. pyogenes (77 A), Strept. faecium (D). Tabelle 3

Staph. aureus (503) = test: as above; details: Staphylococcus aureus
Description: as §1, §2, §3

Staph. aureus (SG 511) = test: as above; details: Staphylococcus aureus
Description: as §1, §2, §3

Strept. faecium (D) = test: as above; details: Enterococcus faecium
Description: as §1, §2, §3

Strept. pyogenes (308 A) = test: as above; details: Streptococcus pyogenes
Description: as §1, §2, §3

Strept. pyogenes (77 A) = test: as above; details: Streptococcus pyogenes
Description: as §1, §2, §3

Vaccina = details: HeLa or Vero cells, 72 h CPE, about 50 % of the cells survive
Herpes I = details: HeLa or Vero cells, 72 h CPE, about 50 % of the cells survive
Herpes II = details: HeLa or Vero cells, 72 h CPE, about 50 % of the cells survive
Influenza A = details: HeLa or Vero cells, 72 h CPE, about 50 % of the cells survive
Rhinovirus II = details: Rhino. II; HeLa or Vero cells, 72 h CPE; about 50 % of the cells survive
HeLa- bzw. Vero-Zellen = test: Maximum tolerated dose (DTM) in cell culture; details: HeLa or Vero cells
Description: Die Prüfsubstanzen wurden in Zellkulturmedium (Dulbecco's MEM) gelöst und in einer geometrischen Verdünnungsreihe, Faktor 3, in Standard-Mikrotiterplatten in 100 µl Zellkulturmedium vorgelegt. Anschließend erfolgte die Zugabe von 100 µl einer Suspension von HeLa- bzw. Vero-Zellen in Medium mit 5 % fötalem Kälberserum in einer Zelldichte von 2 x 10⁵ Zellen/ml. Die Ansätze wurden mit 50 µl einer Suspension des jeweiligen Test-Virus infiziert, die so eingestellt war, daß die Zellen innerhalb von 72 h einen cytopathogenen Effekt (CPE) zeigten. Die Auswertung erfolgte durch mikroskopische Begutachtung des Zellrasens und photometrische Messung der Neutralrotaufnahme (Farbtest nach Finter). Als MHK wurde die Konzentration des Präparats angenommen (µg/ml), bei der etwa 50 % der Zellen die Infektion überlebten.
In Spalte 9 ist die DTM (Dosis Tolerata Maxima) in µg/ml angegeben. Tabelle 4

Adeno 5 = details: HeLa or Vero cells, 72 h CPE, concentration at which about 50 % of the cells survive the infection
Paramyxo. III = details: HeLa or Vero cells, 72 h CPE, about 50 % of the cells survive
[1] = Staph. aureus (285), Müller Hinton Agar, 16 to 18 h at 37°C, read-out: MIC
[2] = Staph. aureus (503), Müller Hinton Agar, 16 to 18 h at 37°C, read-out: MIC
[3] = Staph. aureus (SG 511), Müller Hinton Agar, 16 to 18 h at 37°C, lowest concentration that completely prevents growth, read-out: MIC
[4] = Strept. faecium (D), Müller Hinton Agar, 16 to 18 h at 37°C, read-out: MIC
[5] = Strept. pyogenes (308 A), Müller Hinton Agar, 16 to 18 h at 37°C, read-out: MIC
[6] = Strept. pyogenes (77 A), Müller Hinton Agar, 16 to 18 h at 37°C, read-out: MIC

SMILES | MIC (Staph. aureus (285); [1]) [µg/mL] | MIC (Staph. aureus (503); [2]) [µg/mL] | MIC (Staph. aureus (SG 511); [3]) [µg/mL] | MIC (Strept. faecium (D); [4]) [µg/mL] | MIC (Strept. pyogenes (308 A); [5]) [µg/mL] | MIC (Strept. pyogenes (77 A); [6]) [µg/mL] | MHK (Vaccina) | MHK (Herpes I) | MHK (Herpes II) | MHK (Influenza A) | MHK (Rhinovirus II) | DTM (Dosis Tolerata Maxima) (HeLa- bzw. Vero-Zellen) | MHK (Adeno 5) | MHK (Paramyxo. III) | MIC (Staph. aureus (285)) [µg/mL] | MIC (Staph. aureus (503)) [µg/mL] | MIC (Staph. aureus (SG 511)) [µg/mL] | MIC (Strept. faecium (D)) [µg/mL] | MIC (Strept. pyogenes (308 A)) [µg/mL] | MIC (Strept. pyogenes (77 A)) [µg/mL]
COC1CC(CC2CCC(C)C(C(C)C(=O)O)O2)OC2(OC(C)(C3CCC(C)(C4OC(C5OC(O)(C[N+](=O)[O-])C(C)CC5C)CC4C)O3)CC2C)C1C (stereo not shown) [Beispiel 5] | 0.049 (≈ 0.065 µM) | 0.025 (≈ 0.0332 µM) | 0.049 (≈ 0.065 µM) | 0.098 (≈ 0.13 µM) | 0.004 (≈ 0.00531 µM) | 0.004 (≈ 0.00531 µM) |  |  |  |  |  |  |  |  |  |  |  |  |  | 
COC1CC(CC2CCC(C)C(C(C)C(=O)O)O2)OC2(OC(C)(C3CCC(C)(C4OC(C5OC(O)(CCl)C(C)CC5C)CC4C)O3)CC2C)C1C (stereo not shown) [Beispiel 2] | 0.098 (≈ 0.132 µM) | 0.025 (≈ 0.0336 µM) | 0.098 (≈ 0.132 µM) | 0.391 (≈ 0.526 µM) | 0.013 (≈ 0.0175 µM) | 0.007 (≈ 0.00942 µM) | 0,49 µg/ml | 0,05 µg/ml | < 0,02 µg/ml | 0,05 µg/ml | 0,49 µg/ml | 1,48 µg/ml |  |  |  |  |  |  |  | 
CCCCOCC1(O)OC(C2CC(C)C(C3(C)CCC(C4(C)CC(C)C5(OC(CC6CCC(C)C(C(C)C(=O)O)O6)CC(OC)C5C)O4)O3)O2)C(C)CC1C (stereo not shown) [Beispiel 8] | 1.56 (≈ 2 µM) | 0.78 (≈ 0.999 µM) | 0.78 (≈ 0.999 µM) | 3.13 (≈ 4.01 µM) | 0.19 (≈ 0.243 µM) | 0.098 (≈ 0.125 µM) | 4,44 µg/ml | 4,44 µg/ml | 0,16 µg/ml | 0,05 µg/ml | 4,44 µg/ml | 13,3 µg/ml | 0,16 µg/ml | 4,44 µg/ml |  |  |  |  |  | 
COC1CC(CC2CCC(C)C(C(C)C(=O)O)O2)OC2(OC(C)(C3CCC(C)(C4OC(C5OC(O)(CO[Si](c6ccccc6)(c6ccccc6)C(C)(C)C)C(C)CC5C)CC4C)O3)CC2C)C1C (stereo not shown) [Beispiel 9] |  |  |  |  |  |  | 4,44 µg/ml | 0,05 µg/ml | 0,05 µg/ml | 0,05 µg/ml | 4,44 µg/ml | 4,44 µg/ml | 0,05 µg/ml | 4,44 µg/ml | 0.78 (≈ 0.81 µM) | 0.78 (≈ 0.81 µM) | 0.78 (≈ 0.81 µM) | 0.7 (≈ 0.727 µM) | 0.025 (≈ 0.026 µM) | 0.025 (≈ 0.026 µM)
COC1CC(CC2CCC(C)C(C(C)C(=O)O)O2)OC2(OC(C)(C3CCC(C)(C4OC(C5OC(O)(CBr)C(C)CC5C)CC4C)O3)CC2C)C1C (stereo not shown) [Beispiel 3] | 0.013 (≈ 0.0165 µM) | 0.007 (≈ 0.00888 µM) | 0.013 (≈ 0.0165 µM) | 0.098 (≈ 0.124 µM) | < 0.002 | < 0.002 |  | 0,01 µg/ml | 0,3 µg/ml | 0,03 µg/ml | 0,3 µg/ml | 0,89 µg/ml | 0,01 µg/ml |  |  |  |  |  |  | 
COCC1(O)OC(C2CC(C)C(C3(C)CCC(C4(C)CC(C)C5(OC(CC6CCC(C)C(C(C)C(=O)O)O6)CC(OC)C5C)O4)O3)O2)C(C)CC1C (stereo not shown) [Beispiel 7] | 0.78 (≈ 1.06 µM) | 0.39 (≈ 0.528 µM) | 0.78 (≈ 1.06 µM) | 3.13 (≈ 4.24 µM) | 0.39 (≈ 0.528 µM) | 0.19 (≈ 0.257 µM) | 0,49 µg/ml | 0,05 µg/ml | 0,05 µg/ml | 0,05 µg/ml | 1,48 µg/ml | 4,44 µg/ml | 0,16 µg/ml |  |  |  |  |  |  | 
COC1CC(CC2CCC(C)C(C(C)C(=O)O)O2)OC2(OC(C)(C3CCC(C)(C4OC(C5OC(O)(CSC#N)C(C)CC5C)CC4C)O3)CC2C)C1C (stereo not shown) [Beispiel 4] |  |  |  |  |  |  |  |  |  |  |  |  |  |  | 0.78 (≈ 1.02 µM) | 0.78 (≈ 1.02 µM) |  | 0.78 (≈ 1.02 µM) | 0.098 (≈ 0.128 µM) | 0.098 (≈ 0.128 µM)
